Where a SMILES comes first, the peptide text is derived from it. [ ]: non-standard residue; d: D form. dNMeF = CN[C@H](Cc1ccccc1)C(=O)O
Legend:
H69 and DMS79 cells = test system: H69 and DMS79 cells; design: method as in PMID 30108771; conditions: range over both cell lines; read-out: IC50 values in the range against H69 and DMS79; cited from earlier work
DMS79 cells [1] = experiment: Annexin V conjugate / SYTOX Blue flow cytometric analysis of apoptosis; format: cell-based, human; conditions: 24 h, n = 3
Experimental: The novel potent N^ind-butylated peptide, 16, and its unmodified version 1 [26] were incubated for 24 h with DMS79 cells and double stained using Annexin V Fluor® 555 (AnnV) conjugate and SYTOX® Blue (SyB) dead cell stain [29], [32]. The former stain binds to phosphatidyl serine (PS) residues that become exposed at the outer surface of the plasma membrane of cells undergoing apoptosis. DMS79 cell line was selected as a variant cell line model more resistant to chemotherapy since it is established from a SCLC patient treated with three different chemotherapeutics and radiation therapy. Peptide 16 was the most cytotoxic against this cell line (Table 1).
Quantitative assessment of apoptosis was evaluated at low (2 μM) and high (6 μM) peptide concentrations using flow cytometry. A bar-chart (Fig. 6) presents the levels of cells classified into four stages; live cells (AnnV-/SyB-), early apoptotic cells (AnnV+/SyB-), late apoptotic cells (AnnV+/SyB+) and necrotic cells (AnnV-/SyB+). Dot blots are presented in the SD (Fig. S37). […] In contrast, the singly butylated peptide (16) caused highly significant (P < 0.0005) apoptosis in a concentration dependent manner. Even at a low concentration of peptide (2 μM), a small increase (P < 0.05) of early apoptotic cells was observed relative to the control sample.
The experiment was performed according to manufacturer's instructions. Briefly, DMS79 cells were seeded in 12-well plates at a seeding density of 1 × 10^5 cells/well/1980 μl complete medium. Negative control (untreated), peptides at final well concentrations of 2 and 6 μM were prepared and incubated as the above conditions stated in Section 5.1 for 24 h (total volume of wells was 2 ml). The contents of the wells were then carefully transferred into Eppendorf® tubes and centrifuged for 5 min at 500 rpm and the media discarded. Cells pellets were washed with cold PBS. Cells were gently re-suspended in 100 μl annexin-binding buffer followed by the addition of 5 μl of the Annexin V conjugate (Alexa Fluor® 555) and 0.5 μl of dead cell stain (SYTOX® Blue). Tubes were left for 10 min at RT, then 400 μl of annexin-binding buffer were added and samples were analysed on a flow cytometer (BD Biosciences - LSR Fortessa; Diva 8.0.1 software; Annexin V conjugate was excited with 561 nm laser and fluorescence measured using a 586/15 nm bandpass filter; dead cell stain was excited with 405 nm laser and fluorescence measured using 450/50 nm bandpass filter). Assays were repeated three independent times.

DMS79 cells [2] = test system: DMS79 cells; design: method as in PMID 30108771; conditions: treatment for 48 h; obtained previously; read-out: IC50 ± SE, DMS79 Cells; cited from earlier work
H69 cells = test system: H69 cells; design: method as in PMID 30108771; conditions: treatment for 48 h; obtained previously; read-out: IC50 ± SE, H69 Cells; cited from earlier work

Compound | IC50 (H69 and DMS79 cells) | % events, early apoptotic cells (AnnV+/SyB-) (DMS79 cells [1]; DMS79, 2 μM) | % events, late apoptotic cells (AnnV+/SyB+) (DMS79 cells [1]; DMS79, 2 μM) | % events, live cells (AnnV-/SyB-) (DMS79 cells [1]; DMS79, 2 μM) | % events, necrotic cells (AnnV-/SyB+) (DMS79 cells [1]; DMS79, 2 μM) | % events, early apoptotic cells (AnnV+/SyB-) (DMS79 cells [1]; DMS79, 6 μM) | % events, late apoptotic cells (AnnV+/SyB+) (DMS79 cells [1]; DMS79, 6 μM) | % events, live cells (AnnV-/SyB-) (DMS79 cells [1]; DMS79, 6 μM) | % events, necrotic cells (AnnV-/SyB+) (DMS79 cells [1]; DMS79, 6 μM) | IC50 (DMS79 cells [2]) | IC50 (H69 cells)
CN[C@H](Cc1ccccc1)C(=O)N[C@H](Cc1c[nH]c2ccccc12)C(=O)N[C@@H](Cc1ccccc1)C(=O)N[C@H](Cc1c[nH]c2ccccc12)C(=O)N[C@@H](CC(C)C)C(N)=O [Peptide 1, DMePhe-DTrp-Phe-DTrp-Leu-NH2] (H-[dNMeF][dW]F[dW]L-NH2; N-terminus assumed) | 23 to 31 µM | 6.2% | 23.9% | 67.6% | 2.3% | 6.6% | 22.9% | 68.3% | 2.2% | – | –
[Arg^6,D-Trp^7,9,MePhe^8]SP (6–11) [SPG] | – | – | – | – | – | – | – | – | – | > 30 µM | > 30 µM

From paper PMC5500990 (European Journal of Medicinal Chemistry, 2017)
